US20260207602A1, “EGFR INHIBITORS” (Blueprint Medicines Corporation, priority 2022, published 2026)

Legend:
[1] = target: intracellular phosphorylation of EGFR (Tyr1068) in PC-9 cells (Homo sapiens, UniProt P00533, DEL746-750); assay: PC-9 pEGFR AlphaLISA assay; type: cell-based; settings: 4 hours incubation, read-out: Phos EGFR PC9 IC50
Method: PC-9/A431 pEGFR AlphaLISA Assays
Inhibitory effects of compounds were evaluated in cellular assays that measure level of intracellular phosphorylation of EGFR in PC-9 (ECACC, #90071810, Milipore/Sigma) and A431 cell lines (ATCC, CRL-1555) using AlphaLISA sureFire ultra p-EGFR (Tyr1068) assay kit (PerkinElmer, ALSU-PEGFR-A50K). PC-9 cells were seeded at 3.125×10^5 cells/ml in 40 μL phenol-free DMEM supplemented with 10% FBS per well of a 384 well plate (Corning, 3764), while A431 were seeded at […] in 40 μL in phenol-free DMEM with 0.5% FBS. Cells were allowed to adhere overnight at 37° C./5% CO2. On the next day, compounds were transferred at 4-fold, 10-point serial dilution from compound source plate to cell plates using liquid handler Echo550 and were incubated at 37° C./5% CO2 for 4 hours. A431 cells were stimulated prior harvesting for 10 min with EGF at final concentration of 30 ng/ml in the incubator. Medium was removed from the plates and cells were lysed with 10 μL of 1× AlphaLISA lysis buffer (supplemented with 1× protease/phosphatase inhibitor cocktail) followed by shaking at 600 rpm for 30 minutes at room temperature. Lysates were transferred to Optiplate (Apricot designs) and 5 ul of 1× acceptor bead mix (prepared just before use) was added to each well followed by incubation at room temperature for 1.5-2 h in dark. Then 5 μL of freshly-made donor bead mix is added to each well under subdued lighting or green filters, was mixed well on the shaker and the plate was sealed and left for an overnight incubation at room temperature in dark. On the next day, the plate was read the Envision using standard AlphaLisa settings. Percent of pEGFR inhibition was plotted against log concentration of compounds to generate IC50 values.

[2] = target: T1, EGFR (d746-750) (Homo sapiens, UniProt P00533, DEL746-750); assay: Biochemical EGFR inhibition assay (Caliper mobility shift), EGFR (d746-750); settings: biochemical Caliper mobility shift assay, EGFR Exon 19-del enzyme; read-out: Enz EGFR Exon 19-del IC50
T1 construct: purchased SignalChem E10-122JG
Method: (§1) Inhibitory effects of the compounds of the disclosure were measured in biochemical assays that measure the phosphorylation activity of EGFR enzyme phosphorylates 2.5 micromolar 5-FAM-[…]-CONH2 peptide substrate (ProfilerPro Kinase Peptide Substrate 22, PerkinElmer, Part #760366) in the presence of adenosine-5′-triphosphate (ATP) and varying concentrations of the test compound in 100 mM 2-[4-(2-hydroxyethyl)piperazin-1-yl]ethanesulfonic acid (HEPES), pH 7.5, 10 mM MgCl2, 0.015% Brij-35, 1 mM dithiothreitol (DTT), 1.0% dimehylsulfoxide (DMSO). Assays were performed at 1.0 mM ATP or at ATP Km of the EGFR enzymes. Reactions proceeded until between 10% to 20% total peptides were phosphorylated at room temperature (25° C.) and were terminated with 35 mM 2,2′,2″,2′″-(ethane-1,2-diyldinitrilo)tetraacetic acid (EDTA). Product was detected using the Caliper mobility shift detection method where the phosphorylated peptide (product) and substrate were electrophoretically separated and measured. Percent activity was plotted against log concentration of compound and points to generate an apparent IC50. The following enzyme forms of • EGFR were examples that were used in these assays: • EGFR WT (SignalChem, E10-112G) • EGFR L858R (SignalChem, E10-122BG) • EGFR (d746-750) (SignalChem, E10-122JG) • EGFR L858R C797S (SignalChem, E10-122ZG) • EGFR (d746-750) C797S (SignalChem, E10-122TG)

[3] = target: T2, EGFR L858R (Homo sapiens, UniProt P00533, L858R); assay: Biochemical EGFR inhibition assay (Caliper mobility shift), EGFR L858R; settings: biochemical Caliper mobility shift assay, EGFR L858R enzyme; read-out: Enz EGFR L858R IC50
T2 construct: purchased SignalChem E10-122BG
Method: as §1

T2 sequence (P00533 25-1210 L858R): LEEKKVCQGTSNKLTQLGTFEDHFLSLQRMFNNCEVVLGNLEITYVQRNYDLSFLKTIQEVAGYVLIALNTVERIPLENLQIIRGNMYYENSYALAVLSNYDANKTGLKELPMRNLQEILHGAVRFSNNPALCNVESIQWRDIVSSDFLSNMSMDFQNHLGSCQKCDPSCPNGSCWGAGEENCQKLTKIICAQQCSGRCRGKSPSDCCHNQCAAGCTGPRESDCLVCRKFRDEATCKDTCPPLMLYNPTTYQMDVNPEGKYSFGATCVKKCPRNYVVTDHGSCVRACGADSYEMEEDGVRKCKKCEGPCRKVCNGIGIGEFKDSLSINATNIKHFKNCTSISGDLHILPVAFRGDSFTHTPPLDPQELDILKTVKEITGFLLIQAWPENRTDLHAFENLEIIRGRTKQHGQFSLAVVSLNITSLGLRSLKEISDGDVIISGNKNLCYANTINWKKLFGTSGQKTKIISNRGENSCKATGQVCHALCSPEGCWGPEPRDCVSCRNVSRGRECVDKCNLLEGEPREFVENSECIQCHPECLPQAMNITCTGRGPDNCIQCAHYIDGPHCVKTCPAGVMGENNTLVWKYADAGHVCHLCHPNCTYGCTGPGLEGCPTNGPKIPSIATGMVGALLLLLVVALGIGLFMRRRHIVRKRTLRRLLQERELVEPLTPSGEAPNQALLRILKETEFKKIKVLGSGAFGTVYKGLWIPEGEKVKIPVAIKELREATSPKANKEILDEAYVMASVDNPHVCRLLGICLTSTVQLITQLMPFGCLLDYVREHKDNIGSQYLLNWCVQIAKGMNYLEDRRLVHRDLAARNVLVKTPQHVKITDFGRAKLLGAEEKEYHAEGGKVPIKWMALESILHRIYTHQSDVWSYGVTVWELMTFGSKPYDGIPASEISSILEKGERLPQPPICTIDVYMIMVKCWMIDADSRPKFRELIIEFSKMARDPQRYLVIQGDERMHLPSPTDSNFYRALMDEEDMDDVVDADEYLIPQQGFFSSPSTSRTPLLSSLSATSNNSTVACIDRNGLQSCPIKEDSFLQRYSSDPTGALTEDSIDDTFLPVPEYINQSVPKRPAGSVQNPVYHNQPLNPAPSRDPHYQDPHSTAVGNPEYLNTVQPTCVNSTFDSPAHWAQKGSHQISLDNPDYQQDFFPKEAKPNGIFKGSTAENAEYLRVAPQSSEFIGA
T1 sequence (P00533 with tags, fused parts or gaps DEL746-750 limits assumed): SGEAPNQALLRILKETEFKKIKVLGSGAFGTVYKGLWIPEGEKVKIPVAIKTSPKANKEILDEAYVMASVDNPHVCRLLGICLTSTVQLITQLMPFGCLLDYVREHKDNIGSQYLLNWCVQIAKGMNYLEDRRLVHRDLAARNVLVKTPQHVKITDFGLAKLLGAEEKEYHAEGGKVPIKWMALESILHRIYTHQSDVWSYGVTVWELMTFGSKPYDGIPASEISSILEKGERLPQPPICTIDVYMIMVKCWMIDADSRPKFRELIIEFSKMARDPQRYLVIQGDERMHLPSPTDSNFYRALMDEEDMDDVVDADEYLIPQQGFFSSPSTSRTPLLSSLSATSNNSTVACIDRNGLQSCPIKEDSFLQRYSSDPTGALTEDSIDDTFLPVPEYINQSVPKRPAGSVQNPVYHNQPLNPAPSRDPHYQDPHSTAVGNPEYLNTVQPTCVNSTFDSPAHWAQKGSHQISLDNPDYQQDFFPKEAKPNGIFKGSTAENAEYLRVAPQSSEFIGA
intracellular phosphorylation of EGFR (Tyr1068) in PC-9 cells, sequence (P00533 with tags, fused parts or gaps DEL746-750): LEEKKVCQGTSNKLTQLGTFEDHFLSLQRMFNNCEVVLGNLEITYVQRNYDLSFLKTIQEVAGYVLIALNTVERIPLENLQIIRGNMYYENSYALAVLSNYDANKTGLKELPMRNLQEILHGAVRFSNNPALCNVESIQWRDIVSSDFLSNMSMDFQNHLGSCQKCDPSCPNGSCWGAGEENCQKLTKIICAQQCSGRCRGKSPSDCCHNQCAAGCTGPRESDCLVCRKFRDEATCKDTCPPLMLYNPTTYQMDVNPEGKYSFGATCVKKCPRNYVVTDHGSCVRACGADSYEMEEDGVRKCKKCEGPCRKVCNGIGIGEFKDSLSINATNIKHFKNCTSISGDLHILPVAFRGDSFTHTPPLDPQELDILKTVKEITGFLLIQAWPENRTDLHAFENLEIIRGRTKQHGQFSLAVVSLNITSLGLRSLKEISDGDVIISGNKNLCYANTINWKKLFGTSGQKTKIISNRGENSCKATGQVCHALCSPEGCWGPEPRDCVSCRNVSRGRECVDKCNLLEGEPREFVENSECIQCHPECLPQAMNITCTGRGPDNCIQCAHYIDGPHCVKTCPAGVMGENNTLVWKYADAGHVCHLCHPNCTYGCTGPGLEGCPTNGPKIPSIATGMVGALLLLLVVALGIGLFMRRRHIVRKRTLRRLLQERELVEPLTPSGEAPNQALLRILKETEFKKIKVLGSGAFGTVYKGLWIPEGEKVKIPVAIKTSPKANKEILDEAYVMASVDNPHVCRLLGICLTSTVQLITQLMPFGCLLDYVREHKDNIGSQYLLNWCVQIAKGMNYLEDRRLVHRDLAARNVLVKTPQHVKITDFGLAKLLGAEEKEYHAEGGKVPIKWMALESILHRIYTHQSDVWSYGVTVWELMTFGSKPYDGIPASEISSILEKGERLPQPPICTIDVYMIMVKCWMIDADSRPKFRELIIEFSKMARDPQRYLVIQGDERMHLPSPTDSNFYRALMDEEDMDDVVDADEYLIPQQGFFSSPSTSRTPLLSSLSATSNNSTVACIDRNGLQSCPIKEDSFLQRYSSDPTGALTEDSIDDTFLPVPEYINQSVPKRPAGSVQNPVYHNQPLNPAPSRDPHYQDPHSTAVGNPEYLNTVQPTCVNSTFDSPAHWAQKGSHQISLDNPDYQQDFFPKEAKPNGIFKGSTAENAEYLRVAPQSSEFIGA

SMILES	IC50 [1] [nM]	IC50 [2] [nM]	IC50 [3] [nM]
Cn1cc(-c2cc(OC3CC3)c3c(Nc4ccc5ncsc5c4F)ncnc3c2)cn1 [Example 76, N-(5-cyclopropoxy-7-(1-methyl-1H-pyrazol-4-yl)quinazolin-4-yl)-7-fluorobenzo[d]thiazol-6-amine]	10.1 to 50	≤ 10	≤ 10
C[C@@H](Oc1cc(N2CCN(C)CC2)cc2ncnc(Nc3ccc4ncsc4c3)c12)C1COC1 (single isomer, unassigned) [Example 97]	10.1 to 50	≤ 10	10.1 to 50
Cn1cc(-c2cc(O[C@H]3CC[C@H]3O)c3c(Nc4ccc5ncsc5c4)ncnc3c2)cn1 [Example 185, (1R,2S)-2-((4-(benzo[d]thiazol-6-ylamino)-7-(1-methyl-1H-pyrazol-4-yl)quinazolin-5-yl)oxy)cyclobutan-1-ol]	≤ 10	≤ 10	≤ 10
COc1cn(C)nc1-c1cc(O[C@H](C)C2COC2)c2c(Nc3ccc4ncsc4c3F)ncnc2c1 (single isomer, unassigned) [Example 80]	≤ 10	≤ 10	≤ 10
Cn1cc(-c2cc(OC[C@]34COC[C@H]3C4)c3c(Nc4ccc5ncsc5c4)ncnc3c2)cn1 (single isomer, unassigned) [Example 148]	10.1 to 50	≤ 10	≤ 10
CN1CCC(n2cc(-c3cc(F)c4c(Nc5ccc6ncsc6c5F)ncnc4c3)cn2)CC1 [Example 227, 7-fluoro-N-(5-fluoro-7-(1-(1-methylpiperidin-4-yl)-1H-pyrazol-4-yl)quinazolin-4-yl)benzo[d]thiazol-6-amine]	10.1 to 50	≤ 10	≤ 10
COc1cn(C)nc1-c1cc(O[C@H]2CCCN(C)C2)c2c(Nc3ccc4ncsc4c3F)ncnc2c1 [Example 246, (S)-7-fluoro-N-(7-(4-methoxy-1-methyl-1H-pyrazol-3-yl)-5-((1-methylpiperidin-3-yl)oxy)quinazolin-4-yl)benzo[d]thiazol-6-amine]	10.1 to 50	≤ 10	≤ 10
COc1cn(C)nc1-c1cc(O[C@H](C)C2COC2)c2c(Nc3ccc4ncsc4c3)ncnc2c1 (single isomer, unassigned) [Example 121]	10.1 to 50	≤ 10	≤ 10
Cn1cc(-c2cc(OCCO)c3c(Nc4ccc5ncsc5c4)ncnc3c2)cn1 [Example 30, 2-((4-(benzo[d]thiazol-6-ylamino)-7-(1-methyl-1H-pyrazol-4-yl)quinazolin-5-yl)oxy)ethan-1-ol]	10.1 to 50	≤ 10	≤ 10
C[C@@H](Oc1cc(-c2cnn(C)c2)cc2ncnc(Nc3ccc4ncsc4c3)c12)C(F)F (single isomer, unassigned) [Example 52]	≤ 10	≤ 10	≤ 10
CC(Oc1cc(N2CCN(C)C3CC32)cc2ncnc(Nc3ccc4ncsc4c3)c12)C1COC1 [Example 300, N-(7-((1R,6S)-5-methyl-2,5-diazabicyclo[4.1.0]heptan-2-yl)-5-((R)-1-(oxetan-3-yl)ethoxy)quinazolin-4-yl)benzo[d]thiazol-6-amine, OR N-(7-((1S,6R)-5-methyl-2,5-diazabicyclo[4.1.0]heptan-2-yl)-5-((R)-1-(oxetan-3-yl)ethoxy)quinazolin-4-yl)benzo[d]thiazol-6-amine]	≤ 10	≤ 10	10.1 to 50
C[C@@H](CN(C)C)Oc1cc(N2CCN(C)CC2)cc2ncnc(Nc3ccc4ncsc4c3)c12 (single isomer, unassigned) [Example 117]	10.1 to 50	10.1 to 50	10.1 to 50
CN1CC[C@H](Oc2cc(-c3cnn(C)c3)cc3ncnc(Nc4ccc5ncsc5c4F)c23)C1=O (single isomer, unassigned) [Example 72]	≤ 10	≤ 10	≤ 10
C[C@@H](Oc1cc(-c2cnn(C)c2)cc2ncnc(Nc3ccc4ncsc4c3F)c12)[C@H]1CCCO1 [Example 113, 7-fluoro-N-(7-(1-methyl-1H-pyrazol-4-yl)-5-((R)-1-((R)-tetrahydrofuran-2-yl)ethoxy)quinazolin-4-yl)benzo[d]thiazol-6-amine]	≤ 10	≤ 10	≤ 10
Cn1cc(-c2cc(OC3CCN(CC(F)F)CC3)c3c(Nc4ccc5ncsc5c4F)ncnc3c2)cn1 [Example 310, N-(5-((1-(2,2-difluoroethyl)piperidin-4-yl)oxy)-7-(1-methyl-1H-pyrazol-4-yl)quinazolin-4-yl)-7-fluorobenzo[d]thiazol-6-amine]	≤ 10	≤ 10	≤ 10
Cn1cc(-c2cc(OCC(=O)N3CC4(COC4)C3)c3c(Nc4ccc5ncsc5c4F)ncnc3c2)cn1 [Example 277, 2-((4-((7-fluorobenzo[d]thiazol-6-yl)amino)-7-(1-methyl-1H-pyrazol-4-yl)quinazolin-5-yl)oxy)-1-(2-oxa-6-azaspiro[3.3]heptan-6-yl)ethan-1-one]	≤ 10	≤ 10	≤ 10

The next lines start with the values.

IC50 [1] [nM]	IC50 [2] [nM]	IC50 [3] [nM]	SMILES
≤ 10	≤ 10	≤ 10	Cn1cc(-c2cc(O[C@H]3CCNC[C@@H]3F)c3c(Nc4ccc5ncsc5c4)ncnc3c2)c(OC(F)F)n1 (racemic) [Example 370, N-(7-(3-(difluoromethoxy)-1-methyl-1H-pyrazol-4-yl)-5-(((3S,4S)-3-fluoropiperidin-4-yl)oxy)quinazolin-4-yl)benzo[d]thiazol-6-amine]
10.1 to 50	≤ 10	10.1 to 50	Cn1cc(-c2cc(OC3CCN(C4CCOCC4)CC3)c3c(Nc4ccc5ncsc5c4)ncnc3c2)cn1 [Example 412, N-(7-(1-methyl-1H-pyrazol-4-yl)-5-((1-(tetrahydro-2H-pyran-4-yl)piperidin-4-yl)oxy)quinazolin-4-yl)benzo[d]thiazol-6-amine]
10.1 to 50	≤ 10	≤ 10	CO[C@@H]1CN(C)CC[C@H]1Oc1cc(-c2cnn(C)c2)cc2ncnc(Nc3ccc4ncsc4c3)c12 (single isomer, unassigned) [Example A43]
≤ 10	≤ 10	≤ 10	CN1CC[C@@H](Nc2cc3c(Nc4ccc5ncsc5c4)ncnc3cc2-c2ccn(C)n2)[C@H](F)C1 (single isomer, unassigned) [Example 327]
≤ 10	≤ 10	≤ 10	CN1CC[C@@H](Nc2cc3c(Nc4ccc5ncsc5c4)ncnc3cc2-c2cnn(C)c2)[C@H](F)C1 (single isomer, unassigned) [Example 326]
> 50.1	≤ 10	≤ 10	Cn1cc(-c2cc(O[C@H]3COC[C@@H]3O)c3c(Nc4ccc5ncsc5c4)ncnc3c2)cn1 (single isomer, unassigned) [Example A30]
≤ 10	≤ 10	≤ 10	Cn1cc(-c2cc(O[C@@H]3CC[C@H]3O)c3c(Nc4ccc5ncsc5c4)ncnc3c2)cn1 (single isomer, unassigned) [Example A53]
≤ 10	≤ 10	≤ 10	COc1nn(C)cc1-c1cc(O[C@@H]2CCN(C)C[C@H]2F)c2c(Nc3ccc4ncsc4c3F)ncnc2c1 [Example 351, 7-fluoro-N-(5-(((3R,4R)-3-fluoro-1-methylpiperidin-4-yl)oxy)-7-(3-methoxy-1-methyl-1H-pyrazol-4-yl)quinazolin-4-yl)benzo[d]thiazol-6-amine]
